Where a SMILES comes first, the peptide text is derived from it.
Columns and labels:
Format in all cases: cell-based
[1] = system: CHO-K1 cells and HACAT cells; test: Cell viability / cytotoxicity, cell line not stated (MTT and CellTitreGLO); details: cell line not stated
Experimental: (§1) FIG. 3: Cell viability measured via MTT assay and CellTitreGLO assay. CHO-K1 cells and HACAT cells were treated with arginines-histidine-cysteine based peptides comprising nanocomplexes (at charge ratio 10.0) and a Lipofectamine™/Cellfectin™/Superfect™-DNA complex for 4 hours and cell viability was assessed after 24 hours. Untreated cells are taken as control and their absorbance (in the presence of MTT reagent and cell titre GLO reagent) is set as 100% and relative decrease in absorbance is taken as measure of cell viability.
CHO-K1 cells were seeded at density of 7000 cells per well in 96 well plate format in Hams F12K media containing 10% FBS at 37° C. and 5% CO2 in humidified incubator. […] Finally the absorbance was recorded at 550 nm and 670 nm (to negate debris) along with the blank using ELISA plate reader. The percentage viability was calculated by Treated wells (OD550−OD670)/Untreated well (OD550−OD670)*100. […]
The experiment was performed in 96 well plate format wherein the Hacat cells were seeded at 50000 cells per well in DMEM-F12 media containing 10% FBS at 37° C. and 5% CO2 in humidified incubator. […] The plate was then kept in dark for 10 mins at RT for stabilization of the luminescence signal. The reading was recorded on Tecan system and plotted as % cell viability.

Hacat cells = test: Cytotoxicity estimation using Celltitre GLO method
Experimental: as §1
(§2) The experiment was performed in 96 well plate format wherein the Hacat cells were seeded at 50000 cells per well in DMEM-F12 media containing 10% FBS at 37° C. and 5% CO2 in humidified incubator. After 24 hours cells were washed with serum free media and treated with nanocomplex at Z=10.0 (in quadruplets) for 4 hours, keeping DNA concentration 200 ng/well. The viability was assayed after 4 hrs and 24 hrs (in the latter case nanocomplex containing media was replaced with complete media after 4 hrs) of transfection. Initially the plate was equilibrated for 30 mins at RT followed by addition of 100 ul of cell titre GLO reagent with continuous shaking on rotor for 2 mins to allow cell lysis. The plate was then kept in dark for 10 mins at RT for stabilization of the luminescence signal. The reading was recorded on Tecan system and plotted as % cell viability.

[2] = Cytotoxicity estimation using Celltitre GLO method; details: human; Hacat cells, charge ratio 10.0, treated 4 hours; read-out: cell viability
Experimental: as §1, §2

CHO-K1 cells = test: Cytotoxicity of nanocomplex using MTT assay
Experimental: as §1
(§3) CHO-K1 cells were seeded at density of 7000 cells per well in 96 well plate format in Hams F12K media containing 10% FBS at 37° C. and 5% CO2 in humidified incubator. After 24 hours cells were washed with serum free media and treated with different nanocomplex at Z=10.0 (in quadruplets) for 4 hours, keeping DNA concentration 200 ng/well. The viability was assayed after 4 hrs and 24 hrs (in the latter case nanocomplex containing media was replaced with complete media after 4 hrs) of transfection. Briefly 100 ul of MTT reagent (0.5 mg/ml) was added to each well and incubated at 37° C. for 2 hrs to allow formation of formazan crystals. […] Following incubation 100 ul MTT detergent buffer (0.5 ml 10% SDS and 0.06 ml 12N HCl in 10 ml isopropanol) was added to each well and crystals were dissolved by gentle shaking for 30 mins. Finally the absorbance was recorded at 550 nm and 670 nm (to negate debris) along with the blank using ELISA plate reader. The percentage viability was calculated by Treated wells (OD550−OD670)/Untreated well (OD550−OD670)*100. The average of two independent experiments is plotted where each treatment is performed in quadruplets.

[3] = Cytotoxicity of nanocomplex using MTT assay; details: CHO-K1 cells, charge ratio 10.0, treated 4 hours; read-out: cell viability
Experimental: as §1, §3

Structure (SMILES) | cytotoxicity [1] | cell viability compared to Cellfectin (Hacat cells) | viability at 4 h [2] | cell viability compared to Cellfectin and Superfect transfection agents (CHO-K1 cells) | viability at 4 h [3]
N=C(N)NCCC[C@H](NC(=O)[C@H](CCCNC(=N)N)NC(=O)[C@H](CCCNC(=N)N)NC(=O)[C@H](CCCNC(=N)N)NC(=O)[C@H](Cc1c[nH]cn1)NC(=O)[C@H](Cc1c[nH]cn1)NC(=O)[C@H](Cc1c[nH]cn1)NC(=O)[C@H](Cc1c[nH]cn1)NC(=O)[C@H](CCCNC(=N)N)NC(=O)[C@H](CCCNC(=N)N)NC(=O)[C@H](CCCNC(=N)N)NC(=O)[C@H](CCCNC(=N)N)NC(=O)[C@H](CCCNC(=N)N)NC(=O)[C@@H](N)CS)C(=O)N[C@@H](Cc1c[nH]cn1)C(=O)N[C@@H](Cc1c[nH]cn1)C(=O)N[C@@H](Cc1c[nH]cn1)C(=O)N[C@@H](CS)C(=O)O [CR5H4R4H3C, CRRRRRHHHHRRRRHHHC] (H-CRRRRRHHHHRRRRHHHC-OH) | minimal | comparable | 80 to 90% | comparable | 80 to 90%
N=C(N)NCCC[C@H](NC(=O)[C@H](Cc1c[nH]cn1)NC(=O)[C@H](CCCNC(=N)N)NC(=O)[C@H](Cc1c[nH]cn1)NC(=O)[C@H](CCCNC(=N)N)NC(=O)[C@H](Cc1c[nH]cn1)NC(=O)[C@H](CCCNC(=N)N)NC(=O)[C@H](Cc1c[nH]cn1)NC(=O)[C@H](CCCNC(=N)N)NC(=O)[C@H](Cc1c[nH]cn1)NC(=O)[C@H](CCCNC(=N)N)NC(=O)[C@H](Cc1c[nH]cn1)NC(=O)[C@H](CCCNC(=N)N)NC(=O)[C@H](Cc1c[nH]cn1)NC(=O)[C@H](CCCNC(=N)N)NC(=O)[C@H](CCCNC(=N)N)NC(=O)[C@@H](N)CS)C(=O)N[C@@H](CS)C(=O)O [CR(RH)7RC, CRRHRHRHRHRHRHRHRC] (H-CRRHRHRHRHRHRHRHRC-OH) | minimal | comparable | 80 to 90% | comparable | 70 to 80%
